Reference: patent publication US8722648B2, “Liquid pharmaceutical form of alkylphosphocholine and method for preparing same” (priority 2009, dated 2014)
Converted amounts (≈) assume the structure as drawn.

Assay: Solubility of hexadecylphosphocholine in co-solvent systems at 25° C.
Assay type: physicochemical
Conditions: aqueous with cosolvent or surfactant or cyclodextrin
Text: The alkylphosphocholines are soluble in water, ethanol and methanol, but there are accurate bibliography data missing. […] For example, the solubility of alkylphosphocholines is sufficiency high in glycols and glycol ether. The improvement of alkylphosphocholines solubility is observed in propylene glycol-hexylene glycol-water mixtures as the solubility of alkylphosphocholines increases with increasing hexylene glycol concentration. The maximum is at 50% hexylene glycol level. […] The alkylphosphocholines solubility response is linear in the propylene glycol-concentration range 40÷60% in the co-solvent mixture. The addition of Transcutol P to the co-solvent mixture increased the solubility of alkylphosphocholines as a function of the concentration of Transcutol P, which may be due to a co-solvency effect. The functions of Transcutol P are simultaneously solubilizer and penetration enhancer to enable the active agent to cross the barrier of the stratum corneum.

- solubility (hexylene glycol 22, propylene glycol 44, Transcutol P 2, water 32 % v/v): 153 mg/mL (≈ 375 mM)
- solubility (co-solvent system (hexylene glycol/propylene glycol/water), hexylene glycol 22, propylene glycol 44, Transcutol P 0, water 34 % v/v): 138 mg/mL (≈ 339 mM)
- solubility (co-solvent system (hexylene glycol/water), hexylene glycol 22, propylene glycol 0, Transcutol P 0, water 78 % v/v): 119 mg/mL (≈ 291 mM)
SMILES: CCCCCCCCCCCCCCCCOP(=O)([O-])OCC[N+](C)(C)C [hexadecylphosphocholine]
